# Literature values as cited in patent publication US20170056332A1, “HEMORRHOID PREPARATION AND SHEETS” (C.B. Fleet Company, Incorporated, priority 2015, published 2017).
# Conditions: in the presence of menthol; Obata et al. 1990
smiles,measurement,value
CC1CCC(C(C)C)C(O)C1 (stereo not shown) [Menthol],percutaneous absorption of hydrophilic diclofenac sodium,substantially enhanced
